From ChEMBL document CHEMBL4393668, “Discovery and Characterization of XY101, a Potent, Selective, and Orally Bioavailable RORγ Inverse Agonist for Treatment of Castration-Resistant Prostate Cancer” (J Med Chem, 2019)

Key:
[1] = target: T1, Nuclear receptor ROR-gamma (Homo sapiens, UniProt P51449); experiment: Inverse agonist activity at Gal4-fused RORgamma LBD (unknown origin) expressed in 293T cells measured after 24 hrs by dual-luciferase reporter gene assay; type: cell-based
T1 sequence (P51449 whole entry): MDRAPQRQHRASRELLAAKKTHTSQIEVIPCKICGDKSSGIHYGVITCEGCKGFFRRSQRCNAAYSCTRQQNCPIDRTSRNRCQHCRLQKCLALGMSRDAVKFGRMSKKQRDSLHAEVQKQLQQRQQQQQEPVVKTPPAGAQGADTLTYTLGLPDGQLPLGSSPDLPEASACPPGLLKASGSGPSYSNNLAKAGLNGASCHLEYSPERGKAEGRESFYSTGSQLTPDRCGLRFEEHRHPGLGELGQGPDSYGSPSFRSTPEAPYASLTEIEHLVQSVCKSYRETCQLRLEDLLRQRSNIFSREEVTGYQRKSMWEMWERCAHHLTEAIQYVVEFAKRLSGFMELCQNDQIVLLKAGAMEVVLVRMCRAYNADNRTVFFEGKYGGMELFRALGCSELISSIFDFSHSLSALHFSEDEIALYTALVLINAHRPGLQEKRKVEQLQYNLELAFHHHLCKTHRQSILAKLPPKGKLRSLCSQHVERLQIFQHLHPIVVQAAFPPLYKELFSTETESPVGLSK

[2] = target: T2, Nuclear receptor ROR-gamma (Homo sapiens) (UniProt P51449)
T2 sequence (whole entry): T1 sequence (P51449 whole entry)

in vivo [3] = conditions: Sprague-Dawley, rat, iv, 2 mg/kg
Description: Half life in Sprague-Dawley rat at 2 mg/kg, iv

Bile acid receptor [4] = target: T3, Bile acid receptor (Homo sapiens, UniProt Q96RI1)
T3 sequence (Q96RI1 whole entry): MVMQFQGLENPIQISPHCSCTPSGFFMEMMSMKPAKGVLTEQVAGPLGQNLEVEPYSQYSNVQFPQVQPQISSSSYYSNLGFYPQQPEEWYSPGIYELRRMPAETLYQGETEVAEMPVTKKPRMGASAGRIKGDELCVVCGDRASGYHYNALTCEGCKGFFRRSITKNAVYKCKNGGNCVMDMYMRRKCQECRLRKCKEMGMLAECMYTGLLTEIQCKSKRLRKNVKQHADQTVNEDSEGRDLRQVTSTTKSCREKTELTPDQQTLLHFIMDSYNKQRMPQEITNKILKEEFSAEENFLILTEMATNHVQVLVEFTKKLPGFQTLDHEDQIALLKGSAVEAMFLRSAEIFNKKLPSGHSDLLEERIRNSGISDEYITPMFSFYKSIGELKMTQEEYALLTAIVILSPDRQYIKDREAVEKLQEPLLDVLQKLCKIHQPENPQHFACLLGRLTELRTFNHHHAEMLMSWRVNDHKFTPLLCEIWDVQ

[5] = rat, in vivo, iv, 2 mg/kg
Description: Apparent volume of distribution in Sprague-Dawley rat at 2 mg/kg, iv

in vitro = conditions: rat, liver microsomes
Description: Stability in rat liver microsomes assessed as parent compound remaining at 10 uM measured after 60 mins by LC-MS/MS analysis

in vivo [6] = conditions: Sprague-Dawley, rat, po, 10 mg/kg
in vivo [7] = conditions: Sprague-Dawley, rat, iv, 2 mg/kg; remark: listed apart in the source
in vivo [8] = conditions: Sprague-Dawley, rat, po, 10 mg/kg; remark: listed apart in the source
[9] = target: T4, Nuclear receptor ROR-beta (Homo sapiens, UniProt Q92753)
T4 sequence (Q92753 whole entry): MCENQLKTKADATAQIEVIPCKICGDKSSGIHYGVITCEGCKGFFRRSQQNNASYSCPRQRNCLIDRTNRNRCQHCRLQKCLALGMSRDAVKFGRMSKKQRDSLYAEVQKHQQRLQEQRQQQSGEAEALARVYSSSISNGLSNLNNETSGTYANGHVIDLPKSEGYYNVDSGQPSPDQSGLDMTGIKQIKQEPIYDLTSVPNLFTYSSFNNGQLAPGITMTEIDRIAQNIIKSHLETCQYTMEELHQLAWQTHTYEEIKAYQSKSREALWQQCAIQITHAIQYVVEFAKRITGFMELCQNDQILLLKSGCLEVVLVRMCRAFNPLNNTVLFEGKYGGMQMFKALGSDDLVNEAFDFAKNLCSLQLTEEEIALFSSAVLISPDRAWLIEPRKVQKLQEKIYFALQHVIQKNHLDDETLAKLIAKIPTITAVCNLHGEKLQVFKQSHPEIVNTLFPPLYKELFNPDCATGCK

in vivo [10] = conditions: Sprague-Dawley, rat, po, 10 mg/kg; remark: listed apart in the source
in vivo [11] = conditions: Sprague-Dawley, rat, iv, 2 mg/kg; remark: listed apart in the source
in vivo [12] = conditions: Sprague-Dawley, rat, iv, 2 mg/kg; remark: listed apart in the source
[13] = target: T5, Oxysterols receptor LXR-alpha (Homo sapiens, UniProt Q13133)
T5 sequence (Q13133 whole entry): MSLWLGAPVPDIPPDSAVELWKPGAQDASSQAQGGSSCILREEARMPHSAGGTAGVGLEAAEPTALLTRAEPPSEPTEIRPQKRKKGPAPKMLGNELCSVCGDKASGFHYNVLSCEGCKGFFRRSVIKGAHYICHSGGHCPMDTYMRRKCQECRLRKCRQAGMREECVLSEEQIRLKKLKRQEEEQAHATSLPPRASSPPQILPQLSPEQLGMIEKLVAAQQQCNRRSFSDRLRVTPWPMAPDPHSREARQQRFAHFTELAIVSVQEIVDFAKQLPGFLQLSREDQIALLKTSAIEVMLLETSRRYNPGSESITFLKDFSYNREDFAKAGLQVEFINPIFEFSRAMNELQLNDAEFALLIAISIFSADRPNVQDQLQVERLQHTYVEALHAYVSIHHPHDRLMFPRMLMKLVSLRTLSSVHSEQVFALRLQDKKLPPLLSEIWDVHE

in vivo [14] = conditions: Sprague-Dawley, rat, po, 10 mg/kg; remark: listed apart in the source
[15] = target: T6, Nuclear receptor ROR-alpha (Homo sapiens, UniProt P35398)
T6 sequence (P35398 whole entry): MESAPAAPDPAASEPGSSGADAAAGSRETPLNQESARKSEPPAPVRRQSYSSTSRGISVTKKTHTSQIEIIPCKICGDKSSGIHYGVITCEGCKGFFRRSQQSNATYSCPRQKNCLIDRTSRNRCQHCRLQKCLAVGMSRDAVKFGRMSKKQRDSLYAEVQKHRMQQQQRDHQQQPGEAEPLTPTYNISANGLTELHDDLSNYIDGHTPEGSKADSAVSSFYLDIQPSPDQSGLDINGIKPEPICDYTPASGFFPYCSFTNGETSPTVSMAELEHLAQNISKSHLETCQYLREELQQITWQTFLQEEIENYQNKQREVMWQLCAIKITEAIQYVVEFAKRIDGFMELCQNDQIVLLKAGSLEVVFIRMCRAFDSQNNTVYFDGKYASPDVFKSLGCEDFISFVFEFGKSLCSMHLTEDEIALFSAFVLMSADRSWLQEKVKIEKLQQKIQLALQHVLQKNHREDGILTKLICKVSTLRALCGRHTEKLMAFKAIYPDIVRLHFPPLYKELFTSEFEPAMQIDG

[16] = target: T7, Bile acid receptor (Homo sapiens) (UniProt Q96RI1); experiment: Inverse agonist activity at Gal4-fused FXR LBD (unknown origin) expressed in 293T cells measured after 24 hrs by dual-luciferase reporter gene assay relative to control; type: cell-based
T7 sequence (whole entry): T3 sequence (Q96RI1 whole entry)

[17] = target: T1, Nuclear receptor ROR-gamma; experiment: Inverse agonist activity at human N-terminal His6-tagged RORgamma (262 to 507 residues) expressed in Escherichia coli BL21 (DE3) assessed as inhibition of biotinylated co-activator SRC1-4 peptide recruitment by alphascreen assay
Bile acid receptor [18] = target: T3, Bile acid receptor; remark: listed apart in the source
[19] = target: T2, Nuclear receptor ROR-gamma (Homo sapiens); experiment: Inverse agonist activity at Gal4-fused RORgamma LBD (unknown origin) expressed in 293T cells measured after 24 hrs by dual-luciferase reporter gene assay relative to control; type: cell-based
[20] = target: T6, Nuclear receptor ROR-alpha; remark: listed apart in the source

IC50 [1]	ΔTm [2]	SMILES	also measured
1.49 µM	3.5 °C	O=[N+]([O-])c1cccc(CS(=O)(=O)Nc2ccc(-c3ccc(C(O)(C(F)(F)F)C(F)(F)F)cc3F)cc2)c1	
	0 °C	O=C(O)c1ccc(CS(=O)(=O)Nc2ccc(-c3ccc(C(O)(C(F)(F)F)C(F)(F)F)cc3F)cc2)cc1	Activity [19]: 23%
8.05 µM	0 °C	CNC(=O)c1ccc(CS(=O)(=O)Nc2ccc(-c3ccc(C(O)(C(F)(F)F)C(F)(F)F)cc3F)cc2)cc1	
8.72 µM	0 °C	NC(=O)c1ccc(CS(=O)(=O)Nc2ccc(-c3ccc(C(O)(C(F)(F)F)C(F)(F)F)cc3F)cc2)cc1	
2.96 µM	2 °C	COC(=O)c1ccccc1CS(=O)(=O)Nc1ccc(-c2ccc(C(O)(C(F)(F)F)C(F)(F)F)cc2F)cc1	
4.24 µM	4 °C	COC(=O)c1cccc(CS(=O)(=O)Nc2ccc(-c3ccc(C(O)(C(F)(F)F)C(F)(F)F)cc3F)cc2)c1	
0.09 µM	8 °C	COC(=O)c1ccc(CS(=O)(=O)Nc2ccc(-c3ccc(C(O)(C(F)(F)F)C(F)(F)F)cc3F)cc2)cc1	IC50 (Bile acid receptor [4]): Not Active; IC50 [20]: Not Active; IC50 [9]: Not Active; IC50 [17]: 4.83 µM; IC50 [13]: Not Active

Second part, the molecule before the results:

SMILES	IC50 [1]	ΔTm [2]	also measured
O=C(CCC(F)(F)F)Nc1ccc(-c2ccc(C(O)(C(F)(F)F)C(F)(F)F)cc2F)cc1	3.08 µM	7.8 °C	
O=C(Cc1ccccc1[N+](=O)[O-])Nc1ccc(-c2ccc(C(O)(C(F)(F)F)C(F)(F)F)cc2F)cc1		4.2 °C	half-life (in vivo [3]): 7.67 h; IC50 (Bile acid receptor [4]): Not Active; Vz [5]: 3425 mg/kg; remaining at 1 h, 10 µM (in vitro): 79%; Cmax (in vivo [6]): 721 ng/mL; Cmax (in vivo [7]): 839 ng/mL; bioavailability (in vivo [8]): 19%; IC50 [9]: Not Active; AUC(0-t) (in vivo [10]): 3220 ng·h/mL; AUC(0-inf) (in vivo [11]): 6440 ng·h/mL; AUC(0-t) (in vivo [12]): 3340 ng·h/mL; IC50 [13]: Not Active; Tmax (in vivo [14]): 8 h
CS(=O)(=O)c1ccc(CS(=O)(=O)Nc2ccc(-c3ccc(C(O)(C(F)(F)F)C(F)(F)F)cc3F)cc2)cc1	7.76 µM	1 °C	
Nc1ccc(CC(=O)Nc2ccc(-c3ccc(C(O)(C(F)(F)F)C(F)(F)F)cc3F)cc2)cc1		1.5 °C	
COC(=O)CCC(=O)Nc1ccc(-c2ccc(C(O)(C(F)(F)F)C(F)(F)F)cc2F)cc1	0.46 µM	5.2 °C	
CCCCC(=O)Nc1ccc(-c2ccc(C(O)(C(F)(F)F)C(F)(F)F)cc2F)cc1		6.3 °C	
O=C(Cc1ccc([N+](=O)[O-])cc1)Nc1ccc(-c2ccc(C(O)(C(F)(F)F)C(F)(F)F)cc2F)cc1		6 °C	
O=C(CCc1ccccc1)Nc1ccc(-c2ccc(C(O)(C(F)(F)F)C(F)(F)F)cc2F)cc1	1.98 µM	5.2 °C	
COC(=O)CCCC(=O)Nc1ccc(-c2ccc(C(O)(C(F)(F)F)C(F)(F)F)cc2F)cc1	0.93 µM	5.4 °C	
O=[N+]([O-])c1ccccc1CS(=O)(=O)Nc1ccc(-c2ccc(C(O)(C(F)(F)F)C(F)(F)F)cc2F)cc1	7.66 µM	1 °C	
Nc1ccccc1CC(=O)Nc1ccc(-c2ccc(C(O)(C(F)(F)F)C(F)(F)F)cc2F)cc1		1.5 °C	
CCCCCCC(=O)Nc1ccc(-c2ccc(C(O)(C(F)(F)F)C(F)(F)F)cc2F)cc1	0.82 µM	5.8 °C	IC50 [15]: 1.74 µM; IC50 [9]: Not Active; %max [16]: 93%; IC50 [17]: 5.31 µM; IC50 (Bile acid receptor [18]): 1.25 µM; IC50 [13]: Not Active
CC(=O)CCCC(=O)Nc1ccc(-c2ccc(C(O)(C(F)(F)F)C(F)(F)F)cc2F)cc1	1.52 µM	5 °C	
O=C(CCCC1CCCCC1)Nc1ccc(-c2ccc(C(O)(C(F)(F)F)C(F)(F)F)cc2F)cc1	1.08 µM	6.5 °C	
N#Cc1ccc(CS(=O)(=O)Nc2ccc(-c3ccc(C(O)(C(F)(F)F)C(F)(F)F)cc3F)cc2)cc1	7.55 µM	0 °C	
O=[N+]([O-])c1ccc(CS(=O)(=O)Nc2ccc(-c3ccc(C(O)(C(F)(F)F)C(F)(F)F)cc3F)cc2)cc1	2.22 µM	1.5 °C	
CCCCCC(=O)Nc1ccc(-c2ccc(C(O)(C(F)(F)F)C(F)(F)F)cc2F)cc1	1.83 µM	5.9 °C	
